Measurements as given in patent US20040044046A1, “Stability of lipoic acid” (priority 2002, published 2004).

Key:
[1] = Storage stability of the nicotinamide lipoate crystalline powder, followed by repeated infrared spectrophotometry; format: physicochemical
Excerpt: A small quantity of the powder as a mineral oil mull spread was spread on NaCl polished crystal plates. The plate was placed in a Beckman Infrared Spectrophotometer AccuLab 2 grating machine, linear in wave number.

[2] = reduced form with two -SH groups; cited from earlier work
[3] = can degrade under some warehousing conditions; cited from earlier work

## NC(=O)c1cccnc1.O=C(O)CCCCC1CCSS1 (stereo not shown) [Example 1]
[1]; ambient conditions (light and temperature) for over a year
  Change in crystal form or chemical composition on standing: essentially no change
[1]; mineral oil mull on NaCl plates, repeated at about 3 and 17 months, ambient conditions (light and temperature)
  Infrared spectrum on repeat spectrophotometry compared with initial spectrum: essentially the same

## O=C(O)CCCC[C@@H](S)CCS (racemic) [DHLA, dihydrolipoate]
[2]
  Oxidation potential: −0.29 V

## O=C(O)CCCC[C@@H]1CCSS1 [R-LA, R-α-lipoic acid]
[3]
  Temperature above which unstable: above 40 °C
